Results as given in patent US7166611B2, “Pharmaceutical compositions having appetite suppressant activity” (priority 1997, dated 2007).

Legend:
[1] = tested on: rats; experiment: Bioassay of chromatographic fractions for appetite suppressant activity; format: in vivo, rat; settings: bioassay of fractions from silica gel chromatography
Text: The extract may be prepared from plant material such as the stems and roots of said plants of the genus Trichocaulon or of the genus Hoodia. The genus Trichocaulon and the genus Hoodia include succulent plants growing in arid regions such as are found in Southern Africa. In one application of the invention, the active appetite suppressant extract is obtained from the species Trichocaulon piliferum. The species Trichocaulon officinale may also be used to provide an active appetite suppressant extract. In another application of the invention, the active appetite suppressant extract may be obtained from the species Hoodia currorii, Hoodia gordonii or Hoodia lugardii.
The partially purified active extract may be dissolved in methanol, and may be further fractionated by column chromatography, employing silica gel as an adsorption medium and a chloroform/30% methanol mixture as an eluent. A plurality of different fractions may be obtained, and each may be evaluated, by suitable bioassaying procedures, to determine the appetite suppressant activity thereof.
A fraction having appetite suppressant activity may preferably be further fractionated such as by column chromatography using silica gel as an adsorption medium and a 9:1 chloroform:methanol solvent, and the resultant sub-fractions bioassayed for their appetite suppressant activity. […]

[2] = tested on: young female rats; experiment: Oral Dose Anorectic Test, three consecutive days; format: in vivo, rat
Protocol: Animals were allocated to treatment groups using randomisation tables. Each treatment group consisted of three animals, with 6 animals in the control group. The test sample was dosed to young female rats with body weight 100–150 g at acclimatisation, for three consecutive days. Animals were identified by means of metallic ear tags and KMnO4 skin markings for easy identification. Animals were housed individually in standard rodent polycarbonate cages, and water and powdered commercial rodent pellets were available ad libitum. Water and food intakes were measured and calculated for each day. In order to find the minimum effective dose of the test sample, five doses were tested. Treatment was by oral gavage, with the test sample suspended in potato starch.
The test substance was compound (1), a white granular powder prepared from an extract from plant material in accordance with the invention, and the measured quantity of the test sample was mixed with prepared potato starch and dosed. Mixing with potato starch took place immediately before dosing on each day. Before withdrawal of the dosing volume for each animal, the suspensions were mixed thoroughly using a Vortex.
A range of five doses was tested, with a control group 15 receiving only the carrier substance.

How did the appetite suppressant activity [1] turn out when `C/C=C(\C)C(=O)O[C@@H]1CC2C(CC=C3C[C@@H](OC4CC(OC)C(OC5CC(OC)C(OC6OC(C)C(O)C(OC)C6O)C(C)O5)C(C)O4)CC[C@@]32C)[C@@]2(O)CC[C@H](C(C)=O)[C@@]12C` (stereo partly drawn) [Compound (1), 3-0-[-β-D-thevetopyranosyl-(1→4)-β-D-cymaropyranosyl-(1→4)-β-D-cymaropyranosyl]-12β-0-tigloyloxy-14-hydroxy-14β-pregn-5-en-20-one] was run?
Its appetite suppressant activity is “found to have appetite suppressing activity”.

What about the body mass ([2]; 12.50 mg/kg group, oral) of the same compound?
Its body mass is “Actual loss in body mass”.

And the “health of the animals” value ([2]; 6.25–50.00 mg/kg oral gavage, three consecutive days)?
The value was “Treatment did not affect the health of the animals”.

And the “liver at post-mortem examination” value ([2]; all dose groups 6.25–50.00 mg/kg oral)?
The value was “friable livers”.

What about the “mean body mass gain over the total study period” value ([2]; all dose groups 6.25–50.00 mg/kg oral, three consecutive days) of the same compound?
Its value is “significantly reduced mean body mass gain”.

What about the Respiratory rate ([2]; any dose group 6.25–50.00 mg/kg oral) of the same compound?
The Respiratory rate was “in none of the animals in any dose group was significantly effected”.

And the water consumption ([2]; higher dose groups, oral, three consecutive days)?
The water consumption was “increased water consumption”.

What about the “food intake and body mass gain” value ([2]; lowest dose group 6.25 mg/kg oral) of the same compound?
The value was “Reduced food intake and reduced body mass gain”.

What about the appetite suppressive action ([2]; lowest dose tested 6,25 mg/kg oral) of the same compound?
Its appetite suppressive action is “has appetite suppressive action”.
